Laboratory results published in publication PMC4019984, “Kinase and channel activity of TRPM6 are co-ordinated by a dimerization motif and pocket interaction” (Biochemical Journal, 2014).

How the values were obtained:
[1] = target: T1, GST-tagged TRPM6-(1730–end) (Homo sapiens, UniProt Q9BX84); assay: Peptide pull-down, TRPM6-(1730–end); format: binding; details: HEK-293 lysate 1–5 mg, 3 μg biotinylated peptide, 10 min at 4°C, streptavidin beads; anti-GST immunoblot
T1 construct: E. coli-purified GST-tagged TRPM6-(1730–end); made in house; host or cells: E. coli BL21
T1 sequence (Q9BX84 1730-2022 limits assumed): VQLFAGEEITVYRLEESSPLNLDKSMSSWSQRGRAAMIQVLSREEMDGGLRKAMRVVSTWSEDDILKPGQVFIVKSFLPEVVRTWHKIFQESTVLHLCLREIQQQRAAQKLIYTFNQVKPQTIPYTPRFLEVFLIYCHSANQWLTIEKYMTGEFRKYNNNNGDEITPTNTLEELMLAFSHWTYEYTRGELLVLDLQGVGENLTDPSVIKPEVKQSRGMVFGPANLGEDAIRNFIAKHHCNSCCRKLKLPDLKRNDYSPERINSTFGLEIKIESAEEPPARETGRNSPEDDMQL
Protocol: (§1) The peptides biotin-C6-[…]-TIPFTPVQLFAGEEITV (wild-type) and biotin-C6-LKSPQE-[…] (mutant) were purchased from GL Biochem. For a peptide pull-down, 1–5 mg of lysate was incubated with 3 μg of the respective peptide for 10 min at 4°C under gentle agitation, followed by 5 min of incubation with 10–20 μl of streptavidin beads at 4°C. The immunoprecipitates were washed three times with lysis buffer containing 0.15 M NaCl and then twice with buffer A. Proteins were eluted by resuspending washed immunoprecipitates in 30 μl of SDS sample buffer.
(Figure 2A). We next utilized fluorescence polarization technology, a sensitive method to evaluate interactions between proteins and peptides. Using this methodology, we first evaluated how polarization of a fluorescently labelled peptide encompassing the dimerization motif was affected by titration of TRPM6-(1730–end) (which lacks the dimerization motif). […]
Figure 2 Identification of dimerization motif residues in TRPM6 (A) Structural model of TRPM7 α-kinase depicting the N-terminal non-catalytic α-helix of one monomer that interacts with the kinase segment of the other monomer. (B) Fluorescence polarization analysis of wild-type (WT) and mutant (Mut) dimerization motif peptides with E. coli-purified GST-tagged TRPM6-(1730–end). […] The samples were analysed by immunoblotting with anti-GST antibody (top panel). […]

[2] = test system: GST-tagged TRPM6-(1730–end) Q1832K; assay: Peptide pull-down, Q1832K mutant; format: binding, human; details: HEK-293 lysate, 3 μg peptide, 4°C, anti-GST immunoblot
Protocol: (§2) The peptides biotin-C6-[…]-TIPFTPVQLFAGEEITV (wild-type) and biotin-C6-LKSPQE-[…] (mutant) were purchased from GL Biochem. For a peptide pull-down, 1–5 mg of lysate was incubated with 3 μg of the respective peptide for 10 min at 4°C under gentle agitation, followed by 5 min of incubation with 10–20 μl of streptavidin beads at 4°C. The immunoprecipitates were washed three times with lysis buffer containing 0.15 M NaCl and then twice with buffer A. Proteins were eluted by resuspending washed immunoprecipitates in 30 μl of SDS sample buffer. […]
(§3) Figure 3 Analysis of the dimerization pocket residues (A) Structural model of TRPM6 based on TRPM7 α-kinase depicting the binding of Leu^1718 and Leu^1721 to other residues in the α-kinase domain. […] The samples were analysed by immunoblotting with anti-GST antibody (top panel). […] (C) Fluorescence polarization analysis of the dimerization motif peptide with E. coli purified GST-tagged TRPM6-(1730–end) and indicated mutants. […] Proteins were separated by SDS/PAGE, stained with Coomassie Blue (top and middle panels) and MBP phosphorylation was detected by autoradiography (bottom panel). […] Proteins were separated by SDS/PAGE, stained with Coomassie Blue (top and middle gels) and MBP phosphorylation was detected by autoradiography (bottom gel). […]

[3] = test system: GST-tagged TRPM6-(1730–end) L1840A; assay: Peptide pull-down, L1840A mutant; format: binding, human; details: HEK-293 lysate, 3 μg peptide, 4°C, anti-GST immunoblot
Protocol: as §2, §3

[4] = test system: full-length FLAG-tagged wild-type TRPM6; assay: Peptide pull-down, full-length wild-type TRPM6; format: binding, human; details: full-length wild-type TRPM6, HEK-293 lysate, 3 μg peptide, 4°C; anti-FLAG immunoblot
Protocol: as §1
(§4) Figure 2 Identification of dimerization motif residues in TRPM6 (A) Structural model of TRPM7 α-kinase depicting the N-terminal non-catalytic α-helix of one monomer that interacts with the kinase segment of the other monomer. (B) Fluorescence polarization analysis of wild-type (WT) and mutant (Mut) dimerization motif peptides with E. coli-purified GST-tagged TRPM6-(1730–end). […] The samples were analysed by immunoblotting with anti-GST antibody (top panel). […] Proteins were separated by SDS/PAGE, stained with Coomassie Blue (top and middle gels) and MBP phosphorylation was detected by autoradiography (bottom gel). […] Proteins were separated by SDS/PAGE, stained with Coomassie Blue (top and middle gels) and MBP phosphorylation was detected by autoradiography (bottom gel). […] The pull-down samples were analysed by immunoblotting with anti-FLAG antibody (top panel). […]

[5] = test system: full-length FLAG-tagged kinase-inactive TRPM6; assay: Peptide pull-down, full-length kinase-inactive TRPM6; format: binding, human; details: full-length kinase-inactive TRPM6, HEK-293 lysate, 3 μg peptide, 4°C; anti-FLAG immunoblot
Protocol: as §1, §4

biotin-C6-LKSPQEPHHHYSAIERNNLMRLSQ-TIPFTPVQLFAGEEITV [biotinylated dimerization motif peptide, biotin-C6 wild-type dimerization motif peptide; conjugated to streptavidin–Sepharose]
affinity purification of TRPM6-(1730–end) (pull-down) [1]: could efficiently purify TRPM6-(1730–end) | binding to biotinylated dimerization motif peptide (pull-down) [2]: abolished binding to the peptide | binding to biotinylated dimerization motif peptide (pull-down) [3]: abolished binding to the peptide | interaction with biotinylated dimerization motif peptide (pull-down) [4]: do not interact | interaction with biotinylated dimerization motif peptide (pull-down) [5]: do not interact
